According to PubChem BioAssay AID1745844 (Carcinogenic Potency Database (CPDB), 2022):
The source made the active and inactive calls. The rule behind the calls is not given here.

Tested on: rodent lifetime carcinogenesis bioassay, tumor incidence TD50
Experiment: carcinogenic potency in animals, long-term in vivo studies, CPDB compilation (AID 1745844)

## CC(Cl)C=O (stereo unspecified)
mouse, strain Ha/ICR, females, by gavage, site: forestomach, lesion: one or several types, types not named, dosed 89 weeks, study length 89 weeks
  TD50: 12.9 mg/kg/day
mouse, strain Ha/ICR, males, by gavage, site: forestomach, lesion: one or several types, types not named, dosed 89 weeks, study length 89 weeks
  TD50: 22.7 mg/kg/day

## CCOC(=O)/C=C\C(=O)OCC
rat, strain F344/DuCrj, males, in feed, site: forestomach, lesion: one or several types, types not named, dosed 51 weeks, study length 52 weeks
  carcinogen call: negative (inactive)
rat, strain F344/DuCrj, males, in feed, site: forestomach, lesion: squamous-cell papilloma, dosed 104 weeks, study length 104 weeks
  TD50: 1070 mg/kg/day
rat, strain F344/DuCrj, males, in feed, site: stomach, glandular, lesion: one or several types, types not named, dosed 51 weeks, study length 52 weeks
  carcinogen call: negative (inactive)

## CC(C)(Oc1ccc(C2CC2(Cl)Cl)cc1)C(=O)O (stereo unspecified)
mouse, strain C57BL/6N, males, in feed, site: liver, lesion: hepatocellular adenoma, dosed 78 weeks, study length 78 weeks
  TD50: 5.89 mg/kg/day
mouse, strain C57BL/6N, males, in feed, site: liver, lesion: hepatocellular adenoma, dosed 89 weeks, study length 91 weeks
  TD50: 19.2 mg/kg/day
mouse, strain C57BL/6N, males, in feed, site: liver, lesion: hepatocellular carcinoma, dosed 78 weeks, study length 78 weeks
  TD50: 12.3 mg/kg/day
mouse, strain C57BL/6N, males, in feed, site: liver, lesion: hepatocellular carcinoma, dosed 89 weeks, study length 91 weeks
  TD50: 46.4 mg/kg/day
mouse, strain C57BL/6N, males, in feed, site: liver, lesion: several types, types named in the paper, dosed 78 weeks, study length 78 weeks
  TD50: 4.17 mg/kg/day
mouse, strain C57BL/6N, males, in feed, site: liver, lesion: several types, types named in the paper, dosed 89 weeks, study length 91 weeks
  TD50: 12.1 mg/kg/day
rat, strain Fischer 344, females, in feed, site: stomach, glandular, lesion: carcinoid tumor, malignant, dosed 104 weeks, study length 104 weeks
  TD50: 531 mg/kg/day
rat, strain Fischer 344, males, in feed, site: liver, lesion: hepatocellular carcinoma, dosed 60 weeks, study length 60 weeks
  carcinogen call: positive
rat, strain Fischer 344, males, in feed, site: liver, lesion: neoplastic nodule, dosed 60 weeks, study length 60 weeks
  carcinogen call: positive
rat, strain Fischer 344, males, in feed, site: liver, lesion: several types, types named in the paper, dosed 60 weeks, study length 60 weeks
  carcinogen call: positive
rat, strain Fischer 344, males, in feed, site: liver, lesion: several types, types named in the paper, dosed 95 weeks, study length 95 weeks
  carcinogen call: positive
rat, strain Fischer 344, males, in feed, site: stomach, glandular, lesion: carcinoid tumor, malignant, dosed 104 weeks, study length 104 weeks
  TD50: 103 mg/kg/day
rat, strain Fischer 344, males, in feed, site: testis, lesion: Leydig-cell tumor, dosed 95 weeks, study length 95 weeks
  carcinogen call: negative (inactive)

## CCNNC(=O)[C@@H]1[C@H](c2cc(OC)c(OC)c(OC)c2)c2cc3c(cc2[C@H](O)[C@H]1CO)OCO3
rat, strain BR 46, males, i.v., site: any site (literature study), lesion: several types, types named in the paper, dosed 52 weeks, study length 104 weeks
  carcinogen call: negative (inactive)

## Oc1ccc2ccccc2c1N=Nc1ccccc1
mouse, strain B6C3F1, females, in feed, site: all sites, lesion: lymphoma, dosed 103 weeks, study length 105 weeks
  TD50: 128 mg/kg/day (inactive)
mouse, strain B6C3F1, females, in feed, site: any site (literature study), lesion: several types, types named in the paper, dosed 103 weeks, study length 105 weeks
  TD50: 391 mg/kg/day
mouse, strain B6C3F1, females, in feed, site: liver, lesion: hepatocellular adenoma + hepatocellular carcinoma + neoplastic nodule, dosed 103 weeks, study length 105 weeks
  TD50: 833 mg/kg/day
mouse, strain B6C3F1, females, in feed, site: lung, lesion: alveolar/bronchiolar adenoma + alveolar/bronchiolar carcinoma, dosed 103 weeks, study length 105 weeks
  TD50: 3030 mg/kg/day
mouse, strain B6C3F1, males, in feed, site: any site (literature study), lesion: several types, types named in the paper, dosed 103 weeks, study length 105 weeks
  TD50: 154 mg/kg/day (inactive)
mouse, strain B6C3F1, males, in feed, site: liver, lesion: hepatocellular adenoma + hepatocellular carcinoma + neoplastic nodule, dosed 103 weeks, study length 105 weeks
  TD50: 587 mg/kg/day
mouse, strain B6C3F1, males, in feed, site: lung, lesion: alveolar/bronchiolar adenoma + alveolar/bronchiolar carcinoma, dosed 103 weeks, study length 105 weeks
  TD50: 1080 mg/kg/day
mouse, strain CBA, females, in feed, site: liver, lesion: hepatoma, dosed 52 weeks, study length 104 weeks
  carcinogen call: negative (inactive)
mouse, strain CBA, males, in feed, site: liver, lesion: hepatoma, dosed 52 weeks, study length 104 weeks
  carcinogen call: negative (inactive)
rat, strain Fischer 344, females, in feed, site: liver, lesion: hepatocellular adenoma + hepatocellular carcinoma + neoplastic nodule, dosed 103 weeks, study length 104 weeks
  TD50: 86.5 mg/kg/day
rat, strain Fischer 344, females, in feed, site: liver, lesion: hepatocellular carcinoma + neoplastic nodule, dosed 103 weeks, study length 104 weeks
  TD50: 86.5 mg/kg/day
rat, strain Fischer 344, females, in feed, site: liver, lesion: neoplastic nodule, dosed 103 weeks, study length 104 weeks
  TD50: 96.6 mg/kg/day
rat, strain Fischer 344, females, in feed, site: subcutaneous tissue, lesion: fibroma, dosed 103 weeks, study length 104 weeks
  TD50: 346 mg/kg/day
rat, strain Fischer 344, males, in feed, site: any site (literature study), lesion: several types, types named in the paper, dosed 103 weeks, study length 104 weeks
  TD50: 106 mg/kg/day
rat, strain Fischer 344, males, in feed, site: liver, lesion: hepatocellular adenoma + hepatocellular carcinoma + neoplastic nodule, dosed 103 weeks, study length 104 weeks
  TD50: 17.9 mg/kg/day
rat, strain Fischer 344, males, in feed, site: liver, lesion: hepatocellular carcinoma + neoplastic nodule, dosed 103 weeks, study length 104 weeks
  TD50: 17.9 mg/kg/day
rat, strain Fischer 344, males, in feed, site: liver, lesion: neoplastic nodule, dosed 103 weeks, study length 104 weeks
  TD50: 17.7 mg/kg/day
